From patent US20230247992A1, “ARTHROPOD CONTROL COMPOSITION” (Firmenich SA, priority 2020, published 2023)

Key:
Aedes aegypti [1] = experiment: in vitro Warm Body assay, substance introduced in the cage air by forced evaporation (spatial repellence); format: in vivo
Experimental: (§1) The controlling effect, repellence & spatial repellence, according to the present invention is determined by testing the Warm Body assay against the yellow fever mosquito, Aedes aegypti Rockefeller strain. […] Observations of controlling efficacy were made on host-seeking females of uniform age, 5 to 10 days old selected as mentioned in the publication mentioned hereinabove. Tested hungry females had access to 10% sugar solution but were not blood-fed. Further information is provided in the accompanying examples.
(§2) The published protocol has been adapted in not manually counting the landing mosquitoes but automatically using an automatic counting software, the switch from Anopheles gambiae to A. aegypti led to a decrease of mosquitoes’ number placed in the tested cage due to the size difference (i.e. 30 mosquitoes instead of 50) and to an increase of lighting as A. aegypti is a diurnal mosquitoes (i.e. 150 lux instead of 4 lux). Further information is provided in the accompanying examples.,
(§3) The controlling effect of the compositions according to the present invention was assessed using an adapted Warm Body assay as defined in Kröber T, Kessler S, Frei J, Bourquin M, Guerin PM. 2010. An in vitro assay for testing mosquito controlling compounds employing a warm body and carbon dioxide as a behavioral activator. J Am Mosq Control Assoc. 26:381-386. In this in-vitro assay the number of mosquito landing on a warm body, simulating an attractive host treated with the tested stimuli, was measured in order to assess the repellence effect.
as §2, with “to Aedes” for “to A.”, “lux).” for “lux). Further information is provided in the accompanying examples.,”
(§4) In addition, since the inventors were interested by assessing spatial repellence added or not to a deterrent effect, the substance was applied using two different technics. Whether, as in Kröber et al. (2010), both deterrent and repellent effect were investigated (i.e. similar effect than most body care applications such as lotion) and the substances was applied on a sandblasted glass Petri dish placed on top of the warm body. Whether only the spatial repellence was investigated (i.e. similar effect than most home care applications such as liquid electric dispenser) and the substance was introduced in the cage space thanks to a forced evaporation system as described in Chappuis C J-F, Niclass Y, Vuilleumier C, Starkenmann C. 2015. Quantitative Headspace Analysis of Selected Odorants from Latrines in Africa and India. Environ. Sci. Technol. 49:6134-6140.
(§5) As stated in Kröber et al. (2010), selected 10-12 days old hungry females, that had ad libitum access to 10% sugar solution but were not blood-fed, were selected for the assay.
The forced evaporation system allows to fill the volume of the cage with stimuli tested, (2-methyl-4-oxo-3-prop-2-ynylcyclopent-2-en-1-yl) 2,2-dimethyl-3-(2-methylprop-1-enyl)cyclopropane-1-carboxylate (prallethrin) and N,N-diethyl-3-methylbenzamide (DEET) being used as benchmarks. In order to limit potential dead volumes in the cage, five flushes of the cage were made before starting the 2 minutes test during which the number of mosquito landings was counted.

Aedes aegypti [2] = experiment: in vitro Warm Body assay, substance applied on glass Petri dish on top of the warm body (deterrence and repellence); format: in vivo
Experimental: as §1, §2, §3
as §2, with “to Aedes” for “to A.”, “lux).” for “lux). Further information is provided in the accompanying examples.,”
as §4, §5
On the sandblasted glass Petri dish covering the warm body (28.3 cm^2), 100 µL of the substances diluted at different concentrations in ethanol was applied. The number of mosquito landing on the warm body was counted for each stimuli, N,N-diethyl-3-methylbenzamide (DEET) and ethyl 3-[acetyl(butyl)amino]propanoate (IR3535) being used as benchmarks and pure ethanol as control.

[3] = 0.0017 µg/L air, without substance 54.1±4.9
[4] = 0.017 µg/L air, without substance 54.1±4.9
[5] = 0.17 µg/L air, without substance 54.1±4.9
[6] = 1.7 µg/L air, without substance 54.1±4.9
[7] = 17 µg/L air, without substance 54.1±4.9
[8] = 0.04% in ethanol, ethanol control 67.0±8.8 landings
[9] = 1% in ethanol, ethanol control 67.0±8.8 landings
[10] = […] in ethanol, ethanol control 67.0±8.8 landings
[11] = 0.0017 µg/L air, without substance 56.0±3.6
[12] = 0.017 µg/L air, without substance 56.0±3.6
[13] = 0.17 µg/L air, without substance 56.0±3.6
[14] = 1.7 µg/L air, without substance 56.0±3.6
[15] = 17 µg/L air, without substance 56.0±3.6
[16] = 0.04% in ethanol, ethanol control 67.1±9.1 landings
[17] = 1% in ethanol, ethanol control 67.1±9.1 landings
[18] = […] in ethanol, ethanol control 67.1±9.1 landings

OCCc1ccccc1 [2-phenylethanol]
number of mosquitoes landing within 2 minutes on the warm body, air in the cage saturated with stimulus (Aedes aegypti [1]; [3]): 12.0
number of mosquitoes landing within 2 minutes on the warm body, air in the cage saturated with stimulus (Aedes aegypti [1]; [4]): 30.0
number of mosquitoes landing within 2 minutes on the warm body, air in the cage saturated with stimulus (Aedes aegypti [1]; [5]): 25.0
number of mosquitoes landing within 2 minutes on the warm body, air in the cage saturated with stimulus (Aedes aegypti [1]; [6]): 51.0
number of mosquitoes landing within 2 minutes on the warm body, air in the cage saturated with stimulus (Aedes aegypti [1]; [7]): 30.0
landing decrease (Aedes aegypti [1]; highest dose tested): 41%
number of mosquitoes landing within 2 minutes on the warm body (Aedes aegypti [2]; [8]): 46.0
number of mosquitoes landing within 2 minutes on the warm body (Aedes aegypti [2]; [9]): 0.0
number of mosquitoes landing within 2 minutes on the warm body (Aedes aegypti [2]; [10]): 72.0

CC(C)C(=O)OCCc1ccccc1 [2-phenylethyl 2-methylpropanoate]
number of mosquitoes landing within 2 minutes on the warm body (Aedes aegypti [2]; [8]): 55.0
number of mosquitoes landing within 2 minutes on the warm body (Aedes aegypti [2]; [9]): 2.0
number of mosquitoes landing within 2 minutes on the warm body (Aedes aegypti [2]; [10]): 90.0

CC(=O)OC1CC(C)CCC1C(C)C (centres unmarked) [5-methyl-2-propan-2-ylcyclohexyl] acetate]
number of mosquitoes landing within 2 minutes on the warm body, air in the cage saturated with stimulus (Aedes aegypti [1]; [11]): 31.5
number of mosquitoes landing within 2 minutes on the warm body, air in the cage saturated with stimulus (Aedes aegypti [1]; [12]): 24.0
number of mosquitoes landing within 2 minutes on the warm body, air in the cage saturated with stimulus (Aedes aegypti [1]; [13]): 17.5
number of mosquitoes landing within 2 minutes on the warm body, air in the cage saturated with stimulus (Aedes aegypti [1]; [14]): 9.0
number of mosquitoes landing within 2 minutes on the warm body, air in the cage saturated with stimulus (Aedes aegypti [1]; [15]): 25.0
number of mosquitoes landing within 2 minutes on the warm body (Aedes aegypti [2]; [16]): 16.0
number of mosquitoes landing within 2 minutes on the warm body (Aedes aegypti [2]; [17]): 10.0
number of mosquitoes landing within 2 minutes on the warm body (Aedes aegypti [2]; [18]): 22.0

CCCCCCC1CCCC(=O)O1 (centres unmarked) [6-hexyloxan-2-one]
number of mosquitoes landing within 2 minutes on the warm body, air in the cage saturated with stimulus (Aedes aegypti [1]; [11]): 31.0
number of mosquitoes landing within 2 minutes on the warm body, air in the cage saturated with stimulus (Aedes aegypti [1]; [12]): 28.0
number of mosquitoes landing within 2 minutes on the warm body, air in the cage saturated with stimulus (Aedes aegypti [1]; [13]): 4.0
number of mosquitoes landing within 2 minutes on the warm body, air in the cage saturated with stimulus (Aedes aegypti [1]; [15]): 5.0
landings in 2 minutes (Aedes aegypti [1]; dose of 0.17 µg/L of air): less than five
number of mosquitoes landing within 2 minutes on the warm body (Aedes aegypti [2]; [16]): 13.0
number of mosquitoes landing within 2 minutes on the warm body (Aedes aegypti [2]; [17]): 5.0
number of mosquitoes landing within 2 minutes on the warm body (Aedes aegypti [2]; [18]): 74.0

CC1=CC[C@@H]2[C@H](C1)C2(C)C [(1S,6R)-3,7,7-trimethylbicyclo[4.1.0]hept-3-ene]
number of mosquitoes landing within 2 minutes on the warm body (Aedes aegypti [2]; [8]): 55.0
number of mosquitoes landing within 2 minutes on the warm body (Aedes aegypti [2]; [9]): 8.0
number of mosquitoes landing within 2 minutes on the warm body (Aedes aegypti [2]; [10]): 59.0

COC(C)(C)[C@H]1CC=C(C)CC1 [(4R)-4-(2-methoxypropan-2-yl)-1-methylcyclohexene]
number of mosquitoes landing within 2 minutes on the warm body (Aedes aegypti [2]; [8]): 18.0
number of mosquitoes landing within 2 minutes on the warm body (Aedes aegypti [2]; [9]): 3.0
number of mosquitoes landing within 2 minutes on the warm body (Aedes aegypti [2]; [10]): 52.0
landings per minute (Aedes aegypti [2]; concentration of 0.04%): ~ 10 landings per minute

C#CCC1=C(C)C(OC(=O)C2C(C=C(C)C)C2(C)C)CC1=O (centres unmarked) [prallethrin, (2-methyl-4-oxo-3-prop-2-ynylcyclopent-2-en-1-yl) 2,2-dimethyl-3-(2-methylprop-1-enyl)cyclopropane-1-carboxylate, reference compound]
number of mosquitoes landing within 2 minutes on the warm body, air in the cage saturated with stimulus (Aedes aegypti [1]; [3]): 77.0
number of mosquitoes landing within 2 minutes on the warm body, air in the cage saturated with stimulus (Aedes aegypti [1]; 0.0017 µg/L air, without substance 54.7±3.2): 77.0
number of mosquitoes landing within 2 minutes on the warm body, air in the cage saturated with stimulus (Aedes aegypti [1]; [11]): 77.0
number of mosquitoes landing within 2 minutes on the warm body, air in the cage saturated with stimulus (Aedes aegypti [1]; [4]): 66.0
number of mosquitoes landing within 2 minutes on the warm body, air in the cage saturated with stimulus (Aedes aegypti [1]; 0.017 µg/L air, without substance 54.7±3.2): 66.0
number of mosquitoes landing within 2 minutes on the warm body, air in the cage saturated with stimulus (Aedes aegypti [1]; [12]): 66.0
number of mosquitoes landing within 2 minutes on the warm body, air in the cage saturated with stimulus (Aedes aegypti [1]; [5]): 15.5
number of mosquitoes landing within 2 minutes on the warm body, air in the cage saturated with stimulus (Aedes aegypti [1]; 0.17 µg/L air, without substance 54.7±3.2): 15.5
number of mosquitoes landing within 2 minutes on the warm body, air in the cage saturated with stimulus (Aedes aegypti [1]; [13]): 15.5
number of mosquitoes landing within 2 minutes on the warm body, air in the cage saturated with stimulus (Aedes aegypti [1]; [6]): 3.0
number of mosquitoes landing within 2 minutes on the warm body, air in the cage saturated with stimulus (Aedes aegypti [1]; 1.7 µg/L air, without substance 54.7±3.2): 3.0
number of mosquitoes landing within 2 minutes on the warm body, air in the cage saturated with stimulus (Aedes aegypti [1]; [14]): 3.0
number of mosquitoes landing within 2 minutes on the warm body, air in the cage saturated with stimulus (Aedes aegypti [1]; [7]): 1.0
number of mosquitoes landing within 2 minutes on the warm body, air in the cage saturated with stimulus (Aedes aegypti [1]; 17 µg/L air, without substance 54.7±3.2): 1.0
number of mosquitoes landing within 2 minutes on the warm body, air in the cage saturated with stimulus (Aedes aegypti [1]; [15]): 1.0
